Measured values published in paper PMC6348443 (Journal of Medicinal Chemistry, 2018).
Counter-ions that a name gives are not always drawn.

Key:
KOR [1] = biological target: T1, KOR (Homo sapiens, UniProt P41145); assay: [35S]GTPγS binding assay, CHO-hKOR membranes; assay type: biochemical; details: for EC50: [35S]GTPγS, CHO human KOR membranes, read-out: KOR EC50; for Emax: relative to reference full agonist U69,593, read-out: KOR % stim.; for functional profile at KOR (full/partial agonist): partial agonist <85% of the response to U69,593
T1 construct: host or cells: CHO (CHO-hKOR)
Method: (§1) Efficacies are presented as percentage stimulation relative to the standard full agonists, [D-Ala^2,N-Me-Phe4,Gly-ol^5]enkephalin (DAMGO for MOR),[53] [D-Pen^2,D-Pen^5]enkephalin (DPDPE for DOR)[54] and N-methyl-2-phenyl-N-[(5R,7S,8S)-7-(pyrrolidin-1-yl)-1-oxaspiro[4.5]dec-8-yl]acetamide (U69,593 for KOR).[55]
(§2) Membranes from CHO cells expressing human opioid receptors were prepared in 50 mM Tris-HCl buffer (pH 7.7) according to a previously described procedure.[64] Cells expressing human opioid receptors grown at confluence were removed from the culture plates by scraping, homogenized in 50 mM Tris buffer (pH 7.7), using a Polytron homogenizer, then centrifuged once and washed by an additional centrifugation at 27 000g for 15 min, at 4 °C. The final pellet was resuspended in Tris buffer and stored at −80 °C until use. Protein content of brain and cell membrane preparation homogenates was determined by the method of Bradford using bovine serum albumin as the standard.[65]
(§3) Binding of [^35S]GTPγS to membranes from CHO cells stably expressing the human opioid receptors was conducted according to the published procedures.[49],[64] Cell membranes (5–10 μg) in 20 mM HEPES, 10 mM MgCl2, and 100 mM NaCl (pH 7.4) were incubated with 0.05 nM [^35S]GTPγS, 10 μM GDP, and various concentrations of test compound in a final volume of 1 mL, for 60 min at 25 °C. Nonspecific binding was determined using 10 μM GTPγS, and the basal binding was determined in the absence of test ligand. Samples are filtered over glass Whatman glass GF/B fiber filters and counted as described for binding assays. All experiments were performed in duplicate and repeated at least three times.
(§4) Data were analyzed and graphically processed using the GraphPad Prism 5.0 Software (GraphPad Prism Software Inc., San Diego, CA). For in vitro assays, inhibition constant (Ki in nM), potency (EC50 in nM), and efficacy (% stimulation) values were determined from concentration–response curves by nonlinear regression analysis. The Ki values were determined by the method of Cheng and Prusoff.[66] In the [^35S]GTPγS binding assays, efficacy was determined relative to the reference full opioid agonists, DAMGO (MOR), DPDPE (DOR), and U69,593 (KOR). In vitro data are presented as mean ± SEM of three to four independent experiments each performed in duplicate. […] Each experimental group included six to seven mice. Data were statistically evaluated using one-way ANOVA with Tukey’s post hoc test for multiple comparisons with significance set at P < 0.05.

MOR [2] = biological target: T2, MOR (Homo sapiens, UniProt P35372); assay: [35S]GTPγS binding assay, CHO-hMOR membranes; assay type: biochemical; details: for Emax: read-out: MOR % stim.; for EC50: [35S]GTPγS, CHO human MOR membranes, read-out: MOR EC50
T2 construct: host or cells: CHO (CHO-hMOR)
Method: as §1, §2, §3, §4

DOR [3] = biological target: T3, DOR (Homo sapiens, UniProt P41143); assay: [35S]GTPγS binding assay, CHO-hDOR membranes; assay type: biochemical; details: for EC50: [35S]GTPγS, CHO human DOR membranes; for Emax: relative to reference full agonist DPDPE, read-out: DOR % stim.
T3 construct: host or cells: CHO (CHO-hDOR)
Method: as §1, §2, §3, §4

male CD1 mice = assay: acetic acid-induced writhing assay after sc administration; assay type: in vivo, mouse; details: for ED50: Mus musculus, 0.5 h, read-out: ED50 (95% CI), mice, sc, inhibition of writhing 30 min after drug administration; for ED50 (95% CI): mice, inhibition of writhing 30 min after drug administration; for increased antinociceptive potency vs comparator: writhing assay, 3a vs 3b, 4a vs 4b, 16b vs 7a (so in the source)
Method: Solutions of test compounds were prepared in sterile physiological 0.9% saline and further diluted to working doses in saline solution. Test compounds or saline (control) were administered by sc route in a volume of 10 μL/1 g of body weight. All doses are expressed in terms of salts. Separate groups of mice received the respective dose of compound, and individual mice were only used once for behavioral testing.
Writhing was induced in male CD1 mice by ip injection of a 0.6% acetic acid aqueous solution as described previously.[48],[62] Groups of mice were administered sc different doses of test compound or saline (control), and 5 min prior to testing (25 min after drug or saline), each animal received an ip injection of acetic acid solution. Each mouse was placed in individual transparent Plexiglas chambers, and the number of writhes was counted during a 10 min observation period. […] For the antagonism study, naloxone methiodide was sc co-administered with the respective opioid agonist, and writhing was assessed as described above.
as §4

DOR [4] = biological target: T3, DOR; assay: competition radioligand binding, CHO cell membranes expressing human DOR, [3H]diprenorphine
Method: as §2
(§5) Rat brain membranes were incubated with either [^3H]DAMGO (1 nM, 45 min, 35 °C) or [^3H][Ile^5,6]deltorphin II (0.5 nM, 45 min, 35 °C) for labeling MOR or DOR receptors, respectively. Guinea-pig brain membranes were incubated with [^3H]U69,593 (1 nM, 30 min, 30 °C) for labeling KOR. Binding assays with CHO cell membranes were conducted at 25 °C for 60 min using [^3H]DAMGO (1 nM) or [^3H]diprenorphine (0.2 nM) for labeling MOR or DOR, respectively. Nonspecific binding was determined using 10 μM naloxone (rodent brain) or 1–10 μM of the unlabeled counterpart of each radioligand (CHO cells). Reactions were terminated by rapid filtration through Whatman glass fiber GF/C filters. Filters were washed three times with 5 mL of ice-cold 50 mM Tris-HCl buffer (pH 7.4) using a Brandel M24R cell harvester (Gaithersburg, MD). Radioactivity retained on the filters was counted by liquid scintillation counting using a Beckman Coulter LS6500 (Beckman Coulter Inc., Fullerton, CA). All binding experiments were performed in duplicate and repeated at least three times.
aDetermined in competition radioligand binding assays using CHO cell membranes expressing
human MOR and DOR. Values represent the mean ± SEM of three independent experiments each

KOR [5] = biological target: T4, KOR (Cavia porcellus, UniProt P41144); assay: competition radioligand binding, guinea-pig brain membranes, [3H]U69,593; details: guinea-pig brain membranes; read-out: opioid receptor binding Ki KOR
T4 construct: Membranes were prepared from Sprague-Dawley rat brains or guinea-pig brains according to the described procedures; tissue Labortierkunde und Laborgenetik, Medizinische Universität Wien; host or cells: guinea-pig brain without cerebella
Method: (§6) Competition binding assays using rat brain (MOR and DOR) and guinea-pig brain (KOR) membranes (Table 1) were performed according to published procedures.[44],[49] […] In addition, we have assessed binding at the human opioid receptors stably transfected in Chinese hamster ovary (CHO) cells (Table S1).
(§7) Membranes were prepared from Sprague-Dawley rat brains or guinea-pig brains according to the described procedures.[44],[45] Brains without cerebella were homogenized on ice in 5 vol/wt of ice-cold 50 mM Tris-HCl buffer (pH 7.4) and diluted in 30 vol/wt of the same buffer. After centrifugation at 40 000g for 20 min at 4 °C, the pellets were resuspended in 30 vol/wt of 50 mM Tris-HCl buffer (pH 7.4) and incubated at 37 °C for 30 min. The centrifugation step described above was repeated, and the final pellets were resuspended in 5 vol/wt of 50 mM Tris-HCl buffer (pH 7.4) containing 0.32 M sucrose and stored at −80 °C until use.
as §5, §4

DOR [6] = biological target: T5, DOR (Rattus norvegicus, UniProt P33533); assay: competition radioligand binding, rat brain membranes, [3H][Ile5,6]deltorphin II; details: rat brain membranes; read-out: opioid receptor binding Ki DOR
T5 construct: Membranes were prepared from Sprague-Dawley rat brains or guinea-pig brains according to the described procedures; tissue Labortierkunde und Laborgenetik, Medizinische Universität Wien; host or cells: Sprague-Dawley rat brain without cerebella
Method: as §6, §7, §5, §4

MOR [7] = biological target: T6, MOR (Rattus norvegicus, UniProt P33535); assay: competition radioligand binding, rat brain membranes, [3H]DAMGO; details: for Ki: rat brain membranes, read-out: opioid receptor binding Ki MOR; for Ki ratio MOR/DOR/KOR: from Ki in rat (MOR, DOR) and guinea-pig (KOR) brain membranes
T6 construct: Membranes were prepared from Sprague-Dawley rat brains or guinea-pig brains according to the described procedures; tissue Labortierkunde und Laborgenetik, Medizinische Universität Wien; host or cells: Sprague-Dawley rat brain without cerebella
Method: as §6, §7, §5, §4

[8] = relative to reference full agonist DAMGO

Compound	EC50 (KOR [1]) [nM]	Emax (KOR [1]) [%]	Emax (MOR [2]; [8]) [%]	EC50 (DOR [3]) [nM]	Emax (DOR [3]) [%]	ED50 (male CD1 mice) [mg/kg]	ED50 (95% CI) (male CD1 mice)	increased antinociceptive potency vs comparator (male CD1 mice) [times]	Ki (DOR [4]) [nM]	functional profile at KOR (full/partial agonist) (KOR [1])	EC50 (MOR [2]) [nM]	Ki (KOR [5]) [nM]	Ki (DOR [6]) [nM]	Ki (MOR [7]) [nM]	Ki ratio MOR/DOR/KOR (MOR [7])	functional profile at MOR (full/partial agonist) (MOR [2]; full agonist ≥85% of the response to DAMGO)	MOR % stim. (MOR [2]; [8]) [%]	increase in MOR binding affinity vs comparator (MOR [7]; rat brain, 17b vs 4b, 16a/b vs 7a/b, 22a/b vs 7a, 7b and 9b, 14a vs 14b)
CO[C@@]12CC[C@H](N[C@@H](C)C(=O)O)[C@@H]3Oc4c(O)ccc5c4[C@@]31CCN(C)[C@@H]2C5 [Compound 3a]	214 ± 71	51 ± 3	97 ± 5	9.55 ± 4.47	93 ± 9	< 0.02	16.0 (5.45–47.0) μg/kg	5	26 ± 3.5	–	–	–	–	–	–	–	–	–
CO[C@@]12CC[C@@H](N[C@@H](C)C(=O)O)[C@@H]3Oc4c(O)ccc5c4[C@@]31CCN(C)[C@@H]2C5 [Compound 3b]	392 ± 160	64 ± 9	87 ± 6	5.2 ± 1.7	104 ± 6	0.0863	–	–	8.43 ± 2.1	partial agonist	–	–	–	–	–	–	–	–
CO[C@@]12CC[C@H](N[C@@H](Cc3ccc(O)cc3)C(=O)O)[C@@H]3Oc4c(O)ccc5c4[C@@]31CCN(C)[C@@H]2C5.Cl.Cl [Compound 9a, (2S)-2-[(4,5α-Epoxy-3-hydroxy-14β-methoxy-17-methylmorphinan-6α-yl)amino]-3-(4-hydroxyphenyl)propionic Acid Dihydrochloride]	100 ± 6	62 ± 8	92 ± 2	1.76 ± 0.22	88 ± 6	< 0.02	14.6 (5.15–41.7) μg/kg	–	–	–	1.87 ± 0.44	39.5 ± 0.2	2.18 ± 0.98	0.83 ± 0.04	–	–	–	–
CO[C@@]12CC[C@H](N[C@@H](CC(=O)O)C(=O)O)[C@@H]3Oc4c(O)ccc5c4[C@@]31CCN(C)[C@@H]2C5 [Compound 13a, (2S)-2-[(4,5α-Epoxy-3-hydroxy-14β-methoxy-17-methylmorphinan-6α-yl)-amino]butanedioic Acid Dihydrochloride]	2990 ± 659	83 ± 17	90 ± 7	10.1 ± 3.8	97 ± 3	0.0382	–	–	–	–	4.1 ± 1.29	50.2 ± 9.2	14.6 ± 3.6	1.36 ± 0.05	1/11/37	–	–	–
CO[C@@]12CC[C@@H](N[C@@H](C(=O)O)C(C)C)[C@@H]3Oc4c(O)ccc5c4[C@@]31CCN(C)[C@@H]2C5 [Compound 16b]	1280 ± 283	98 ± 16	101	1.3 ± 0.64	99 ± 0.2	< 0.02	14.0 (5.90–33.3) μg/kg	8	–	full agonists	2.38 ± 0.77	159 ± 17	1.68 ± 0.16	1.02 ± 0.07	–	full agonist	101 ± 5	2–3 times
CO[C@@]12CC[C@H](NCCC(=O)O)[C@@H]3Oc4c(O)ccc5c4[C@@]31CCN(C)[C@@H]2C5 [Compound 20a, 3-[(4,5α-Epoxy-3-hydroxy-14β-methoxy-17-methylmorphinan-6α-yl)amino]propionic Acid Dihydrochloride]	186 ± 15	78 ± 9	99 ± 7	96.4 ± 8.7	97 ± 2	0.0312	–	–	–	–	3.52 ± 1.65	182 ± 8	60 ± 1.9	1.3 ± 0.08	1/46/140	–	–	–
CO[C@@]12CC[C@H](NCCCC(=O)O)[C@@H]3Oc4c(O)ccc5c4[C@@]31CCN(C)[C@@H]2C5 [Compound 21a]	2030 ± 253	104 ± 9	103 ± 4	34.4 ± 6.5	103 ± 1	0.0419	–	–	–	–	2.88 ± 0.82	45.6 ± 4.4	12.5 ± 0.7	0.77 ± 0.07	1/16/59	–	–	–
